Laboratory results: PubChem BioAssay (NCI)
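The compound was tested at five concentrations on cells cultured in 96-well plates, with a 48-hour exposure period. GI50: concentration for 50% inhibition of growth. TGI: total growth inhibition.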

Experiments:
Assay in all cases: growth of human tumour cells (NCI), 48 h
CAKI-1 renal = tested on: CAKI-1 renal
OVCAR-3 ovarian = tested on: OVCAR-3 ovarian
SK-MEL-28 melanoma = tested on: SK-MEL-28 melanoma
HT29 colon = tested on: HT29 colon
HCT-15 colon = tested on: HCT-15 colon
OVCAR-8 ovarian = tested on: OVCAR-8 ovarian
HCC-2998 colon = tested on: HCC-2998 colon
A498 renal = tested on: A498 renal
RPMI-8226 leukemia = tested on: RPMI-8226 leukemia
SF-268 CNS = tested on: SF-268 CNS
SF-295 CNS = tested on: SF-295 CNS
MCF7 breast = tested on: MCF7 breast
SK-MEL-5 melanoma = tested on: SK-MEL-5 melanoma
DU-145 prostate = tested on: DU-145 prostate
UACC-257 melanoma = tested on: UACC-257 melanoma
CCRF-CEM leukemia = tested on: CCRF-CEM leukemia
K-562 leukemia = tested on: K-562 leukemia
SW-620 colon = tested on: SW-620 colon
HCT-116 colon = tested on: HCT-116 colon
COLO 205 colon = tested on: COLO 205 colon
U251 CNS = tested on: U251 CNS
T-47D breast = tested on: T-47D breast
MALME-3M melanoma = tested on: MALME-3M melanoma
SN12C renal = tested on: SN12C renal
HS 578T breast = tested on: HS 578T breast
SNB-75 CNS = tested on: SNB-75 CNS
NCI-H522 lung = tested on: NCI-H522 lung
LOX IMVI melanoma = tested on: LOX IMVI melanoma
SF-539 CNS = tested on: SF-539 CNS
RXF 393 renal = tested on: RXF 393 renal
NCI-H460 lung = tested on: NCI-H460 lung
TK-10 renal = tested on: TK-10 renal
ACHN renal = tested on: ACHN renal
UACC-62 melanoma = tested on: UACC-62 melanoma
EKVX NSCLC = tested on: EKVX NSCLC
KM12 colon = tested on: KM12 colon
SK-OV-3 ovarian = tested on: SK-OV-3 ovarian
NCI-H226 lung = tested on: NCI-H226 lung
OVCAR-5 ovarian = tested on: OVCAR-5 ovarian
SR leukemia = tested on: SR leukemia
786-0 renal = tested on: 786-0 renal
SK-MEL-2 melanoma = tested on: SK-MEL-2 melanoma
M14 melanoma = tested on: M14 melanoma
MDA-MB-231 breast = tested on: MDA-MB-231 breast
HOP-92 NSCLC = tested on: HOP-92 NSCLC
OVCAR-4 ovarian = tested on: OVCAR-4 ovarian
NCI/ADR-RES ovarian = tested on: NCI/ADR-RES ovarian
NCI-H23 lung = tested on: NCI-H23 lung
SNB-19 CNS = tested on: SNB-19 CNS
A549 NSCLC = tested on: A549 NSCLC
MOLT-4 leukemia = tested on: MOLT-4 leukemia
HL-60(TB) leukemia = tested on: HL-60(TB) leukemia
HOP-62 NSCLC = tested on: HOP-62 NSCLC
MDA-MB-435 = tested on: MDA-MB-435
UO-31 renal = tested on: UO-31 renal
IGROV1 ovarian = tested on: IGROV1 ovarian
BT-549 breast = tested on: BT-549 breast
PC-3 prostate = tested on: PC-3 prostate

## CN1CCN(c2ccc(NC(=O)c3nc4ccc5[nH]ncc5c4c4c3CCCC4)cc2C(F)(F)F)CC1
CAKI-1 renal
  GI50: 1520 nM
  TGI: 7720 nM
OVCAR-3 ovarian
  GI50: 939 nM
  TGI: 1810 nM
SK-MEL-28 melanoma
  GI50: 941 nM
  TGI: 1710 nM
HT29 colon
  GI50: 1020 nM
  TGI: 3060 nM
HCT-15 colon
  GI50: 845 nM
  TGI: 1780 nM
OVCAR-8 ovarian
  GI50: 921 nM
  TGI: 1910 nM
HCC-2998 colon
  GI50: 1100 nM
  TGI: 2990 nM
A498 renal
  GI50: > 50000 nM
  TGI: > 50000 nM
RPMI-8226 leukemia
  GI50: 966 nM
  TGI: 2300 nM
SF-268 CNS
  GI50: 3890 nM
  TGI: 19300 nM
SF-295 CNS
  GI50: 1390 nM
  TGI: 4160 nM
MCF7 breast
  GI50: 964 nM
  TGI: 2320 nM
SK-MEL-5 melanoma
  GI50: 1530 nM
  TGI: 5230 nM
DU-145 prostate
  GI50: 1030 nM
  TGI: 2150 nM
UACC-257 melanoma
  GI50: 902 nM
  TGI: 1880 nM
CCRF-CEM leukemia
  GI50: 1070 nM
  TGI: 3330 nM
K-562 leukemia
  GI50: 968 nM
  TGI: 2110 nM
SW-620 colon
  GI50: 947 nM
  TGI: 2200 nM
HCT-116 colon
  GI50: 814 nM
  TGI: 1500 nM
COLO 205 colon
  GI50: 840 nM
  TGI: 1680 nM
U251 CNS
  GI50: 926 nM
  TGI: 1770 nM
T-47D breast
  GI50: 835 nM
  TGI: 1740 nM
MALME-3M melanoma
  GI50: 760 nM
  TGI: 1640 nM
SN12C renal
  GI50: 895 nM
  TGI: 1650 nM
HS 578T breast
  GI50: 5990 nM
  TGI: 19400 nM
SNB-75 CNS
  GI50: 5500 nM
  TGI: 12100 nM
NCI-H522 lung
  GI50: 856 nM
  TGI: 1880 nM
LOX IMVI melanoma
  GI50: 836 nM
  TGI: 1550 nM
SF-539 CNS
  GI50: 851 nM
  TGI: 1610 nM
RXF 393 renal
  GI50: 798 nM
  TGI: 1550 nM
NCI-H460 lung
  GI50: 956 nM
  TGI: 1830 nM
TK-10 renal
  GI50: 1040 nM
  TGI: 2200 nM
ACHN renal
  GI50: 857 nM
  TGI: 1550 nM
UACC-62 melanoma
  GI50: 973 nM
  TGI: 1830 nM
EKVX NSCLC
  GI50: 1440 nM
  TGI: 8620 nM
KM12 colon
  GI50: 1470 nM
  TGI: 5270 nM
SK-OV-3 ovarian
  GI50: 1480 nM
  TGI: 5250 nM
NCI-H226 lung
  GI50: 4360 nM
  TGI: 17700 nM
OVCAR-5 ovarian
  GI50: 1500 nM
  TGI: 8390 nM
SR leukemia
  GI50: 900 nM
  TGI: 2810 nM
786-0 renal
  GI50: 841 nM
  TGI: 1520 nM
SK-MEL-2 melanoma
  GI50: 7330 nM
  TGI: 19100 nM
M14 melanoma
  GI50: 861 nM
  TGI: 1710 nM
MDA-MB-231 breast
  GI50: 941 nM
  TGI: 1720 nM
HOP-92 NSCLC
  GI50: 658 nM
  TGI: 1340 nM
OVCAR-4 ovarian
  GI50: 1450 nM
  TGI: 6810 nM
NCI/ADR-RES ovarian
  GI50: 1270 nM
  TGI: 4210 nM
NCI-H23 lung
  GI50: 1500 nM
  TGI: 6710 nM
SNB-19 CNS
  GI50: 1390 nM
  TGI: 4580 nM
A549 NSCLC
  GI50: 1120 nM
  TGI: 3050 nM
MOLT-4 leukemia
  GI50: 1090 nM
  TGI: 3080 nM
HL-60(TB) leukemia
  GI50: 969 nM
  TGI: 2100 nM
HOP-62 NSCLC
  GI50: 918 nM
  TGI: 1890 nM
MDA-MB-435
  GI50: 899 nM
  TGI: 1740 nM
UO-31 renal
  GI50: 843 nM
  TGI: 1650 nM
IGROV1 ovarian
  GI50: 821 nM
  TGI: 1730 nM
BT-549 breast
  GI50: 6070 nM
  TGI: 12400 nM

## O=C(c1ccc2ccccc2c1)c1c(C(F)(F)F)n([O-])c2cc(F)c(F)cc2[n+]1=O
CAKI-1 renal
  GI50: 1820 nM
  TGI: 3970 nM
OVCAR-3 ovarian
  GI50: 1460 nM
  TGI: 2980 nM
SK-MEL-28 melanoma
  GI50: 4220 nM
  TGI: 12700 nM
PC-3 prostate
  GI50: 1480 nM
  TGI: 2900 nM
HT29 colon
  GI50: 2340 nM
  TGI: 5290 nM
HCT-15 colon
  GI50: 1760 nM
  TGI: 4370 nM
HCC-2998 colon
  GI50: 2420 nM
  TGI: 7650 nM
A498 renal
  GI50: 16000 nM
  TGI: 32100 nM
RPMI-8226 leukemia
  GI50: 1120 nM
  TGI: 3790 nM
SF-268 CNS
  GI50: 3360 nM
  TGI: 19500 nM
SF-295 CNS
  GI50: 2020 nM
  TGI: 4900 nM
MCF7 breast
  GI50: 3110 nM
  TGI: > 100000 nM
SK-MEL-5 melanoma
  GI50: 4840 nM
  TGI: 18300 nM
DU-145 prostate
  GI50: 1460 nM
  TGI: 4330 nM
UACC-257 melanoma
  GI50: 2530 nM
  TGI: 6450 nM
CCRF-CEM leukemia
  GI50: 1330 nM
  TGI: 3630 nM
K-562 leukemia
  GI50: 314 nM
  TGI: 1440 nM
HCT-116 colon
  GI50: 1500 nM
  TGI: 3020 nM
T-47D breast
  GI50: 2670 nM
  TGI: 6140 nM
MALME-3M melanoma
  GI50: 1130 nM
  TGI: 2650 nM
SNB-75 CNS
  GI50: 4290 nM
  TGI: 15000 nM
SF-539 CNS
  GI50: 2210 nM
  TGI: 3980 nM
RXF 393 renal
  GI50: 1490 nM
  TGI: 2970 nM
NCI-H460 lung
  GI50: 3740 nM
  TGI: 88900 nM
TK-10 renal
  GI50: 1760 nM
  TGI: 3410 nM
ACHN renal
  GI50: 2030 nM
  TGI: 4160 nM
UACC-62 melanoma
  GI50: 2750 nM
  TGI: 6620 nM
EKVX NSCLC
  GI50: 2460 nM
  TGI: 6430 nM
KM12 colon
  GI50: 937 nM
  TGI: 8100 nM
SK-OV-3 ovarian
  GI50: 14500 nM
  TGI: 27900 nM
NCI-H226 lung
  GI50: 4860 nM
  TGI: 44200 nM
OVCAR-5 ovarian
  GI50: 2010 nM
  TGI: 4400 nM
SR leukemia
  GI50: 450 nM
  TGI: 3180 nM
786-0 renal
  GI50: 1740 nM
  TGI: 3230 nM
SK-MEL-2 melanoma
  GI50: 2160 nM
  TGI: 5520 nM
M14 melanoma
  GI50: 2530 nM
  TGI: 7110 nM
MDA-MB-231 breast
  GI50: 1860 nM
  TGI: 3990 nM
HOP-92 NSCLC
  GI50: 1840 nM
  TGI: 3460 nM
OVCAR-4 ovarian
  GI50: 13000 nM
  TGI: 27200 nM
NCI/ADR-RES ovarian
  GI50: 2930 nM
  TGI: 11200 nM
NCI-H23 lung
  GI50: 2620 nM
  TGI: 9290 nM
SNB-19 CNS
  GI50: 2000 nM
  TGI: 4100 nM
A549 NSCLC
  GI50: 4330 nM
  TGI: 16400 nM
MOLT-4 leukemia
  GI50: 749 nM
  TGI: 2680 nM
HL-60(TB) leukemia
  GI50: 1370 nM
  TGI: 3550 nM
HOP-62 NSCLC
  GI50: 5020 nM
  TGI: 16800 nM
MDA-MB-435
  GI50: 1960 nM
  TGI: 4120 nM
UO-31 renal
  GI50: 1020 nM
  TGI: 2680 nM
BT-549 breast
  GI50: 1890 nM
  TGI: 4170 nM
